Results on one compound are retold here after patent US11236102B2, “Oxabicycloheptane prodrugs” (Lixte Biotechnology, Inc., priority 2015, dated 2022).

Structures are written as SMILES. “Also recorded” adds a separate entry of the source.

Data set [1] can be described thus: Pharmacokinetic study of 153 (iv, po) in SD rats: 153 and endothal in plasma, liver, brain. The following applies: for Endothal plasma concentration: individual rats. The class given is in vivo, SD rats. As for the experimental part: The blood, liver and brain tissue samples were collected at predetermined times from rats. […] Compound were diluted shortly before use in 4% sodium bicarbonate for sterile injection (this is the standard pediatric solution of NaHCO3 with a pH of about 8.5).
Compound 153 was freshly prepared by diluting the drugs shortly before use in 4% sodium bicarbonate for sterile injection (this is the standard pediatric solution of NaHCO3 with a pH of about 8.5). The final concentrations of 153 solutions were 0.25 mg/mL. The 153 solutions were administered via iv or po route at dose volume of 5 ml/kg according to the latest body weight. Compound 157 was freshly prepared by diluting the drugs shortly before use in 4% sodium bicarbonate for sterile injection (this is the standard pediatric solution of NaHCO3 with a pH of about 8.5). The final concentrations of […] solutions were 0.3 mg/mL. The 157 solutions were administered via iv or po route at dose volume of 5 ml/kg according to the latest body weight.
Twelve (12) female SD rats per group were dosed by iv with 153 or 157. The rats were fasted overnight prior to dosing, with free access to water. Foods were withheld for 2 hours post-dose. Blood, liver and brain tissue samples in two animals each group were collected at each time point, within 10% of the scheduled time for each time point. Two extra animals were used for analytic method development.
Blood (>0.3 mL) were collected via aorta abdominalis in anaesthetic animals into tubes containing heparin at 15 min, 1, 2, 6, 10 and 24 hours after iv administration. Liver and brain tissues were collected immediately after animal death. The liver and brain tissues were excised and rinsed with cold saline to avoid blood residual. Upon collection, each sample was placed on ice and the blood samples were subsequently centrifuged (4° C., 11000 rpm, 5 min) to separate plasma.
The obtained plasma, liver and brain tissue samples were stored at −70° C. until LC-MS/MS analysis.
Two (2) female SD rats per group were dosed by po with 153 or 157. The rats were fasted overnight prior to dosing, with free access to water. Foods were withheld for 2 hours post-dose. Blood samples (>0.3 mL) were collected via aorta abdominalis in anaesthetic animals into tubes containing heparin at 30 min, 1, 2, 6, 10 and 24 hours after po administration.
To each sample, 20 μL IS-D (for blank samples, 20 μL acetonitrile:water (1:1) was added) and 300 μl acetonitrile was added. The sample mixture was vortexed for approximately 3 min. After centrifugation at 10000 rpm for 5 min at 4° C., 100 μL of the upper layer was transferred to a new tube and added 200 μL 0.4% formic acid in water (pH 6.0). The mixture was vortexed for approximately 3 min before injected onto the LC/MS/MS system for analysis.
On the day of the assay, the frozen liver and brain samples were thawed unassisted at room temperature. An about 200 mg weighed sample of each thawed tissue was placed into a plastic tube with water (0.6 mL) to facilitate homogenization. Tissue processing was conducted using a homogenizer for approximately 1 min, 200 μl homogenate was transferred into a fresh Eppendorf tube. To each tube, 50 μL IS-D was added and mixed. Then 600 ul acetonitrile was added and the sample mixture was vortexed for approximately 3 min. After centrifugation at 10000 rpm for 5 min at 4° C., 400 μL of the upper layer was transferred to a new tube and evaporate the supernatant to dryness at 35° C. Reconstitute the residue with 200 μL of 0.4% formic acid in water (pH6.0), and vortex for 3 min, submit for LC-MS/MS analysis.
Frozen unknown plasma samples were completely thawed at room temperature and vortexed thoroughly. With a pipette, 50 μL of plasma was transferred into a 2.0 mL Eppendorf tube. 50 μL of 0.1N HCl and 800 μL ethyl acetate were added into each sample. The sample mixture was vortexed for approximately 3 min.

A further data set can be described thus: in vivo. The following applies: rat, iv, 1.4 mg/kg; for Kp at 0.25 hr / Kp at 1 hr / Kp at 2 hr: Liver-plasma concentration ratio of Endothal. As for the experimental part: 113 was dissolved in 4% NaHCO3 in saline for IV administration. The detailed procedure of dosing solution preparation was presented in Appendix I.
15 animals were placed on the study. The animals in IV arm were free access to food and water. For PO dose group, the animals were fasted overnight prior to dosing and the food was resumed 4 hours postdose.
The IV injection was conducted via foot dorsal vein. PO via oral gavage.
Blood collection: The animal is restrained manually. Approximately 200 μL of blood/time point is collected into sodium heparin tube via cardiac puncture for terminal bleeding (anesthetized under carbon dioxide). Blood sample will be put on ice and centrifuged to obtain plasma sample (2000 g, 5 min under 4° C.) within 10 minutes.
Liver collection: The animal will be euthanized with carbon dioxide inhalation. Open abdominal cavity with scissor to expose internal organs. Hold the carcass in an upright position and allow the organs to fall forward. Cut the connective tissues and remove the organs. Then the organs are rinsed with cold saline, dried on filtrate paper, placed into a screw-top tube and weighed, snap frozen by placing into dry-ice immediately.
Brain collection: Make a mid-line incision in the animals scalp and retract the skin. Using small bone cutters and rongeurs, remove the skull overlying the brain. Remove the brain using a spatula and rinse with cold saline, dried on filtrate paper, placed into a screw-top tube and weighed, snap frozen by placing into dry-ice immediately. […] Plasma, brain and liver samples were stored at approximately −80° C. until analysis. The backup samples will be discarded after three weeks after in-life completion unless requested. The unused dosing solutions will be discarded within three weeks after completion of the study.
Pharmacokinetic Analysis Software: The PK parameters were determined by non-compartmental model of non-compartmental analysis tool, Pharsight Phoenix WinNonlin® 6.2 software. […] Concentration data within 80%-120% of LLOQ was considered within normal instrumental variation and presented in the results. Terminal t1/2 calculation: Time points were automatic selected by “best fit” model for terminal half life estimation as the first option. Manual selection was applied when “best fit” could not well define the terminal phase. Results

Where [2] appears, read: male, SD, liver concentration of Endothal.

For `O=C(O)C1C2CCC(O2)C1C(=O)O` (stereo not shown) [Endothal, 7-oxabicyclo[2.2.1]heptane-2,3-dicarboxylic acid], the “detectability in brain samples” value in data set [1] (endothal after single iv 153 at 1.25 mg/kg, 1.25 mg/kg) is given as “not detectable; also recorded: undetectable”. The same compound came in with a peak concentration (Cmax) in data set [1] (female, SD, rat, in vivo, po, 1.25 mg/kg) of 46.9 ng/mL. This compound showed an AUC in data set [1] (female, Sprague-Dawley, rat, in vivo, iv, 1.25 mg/kg) of 378 ng·h/mL. Also, in data set [1] (iv administration of 153, 10 hr), the Endothal plasma concentration result was “BLQ”. Besides, in data set [1] (iv administration of 153, 24 hr), the Endothal plasma concentration entry is given as “BLQ”. Further, the Endothal plasma concentration entry in data set [1] (po administration of 153, 10 hr) is reported as “BLQ”. The same compound returned an AUClast in liver in data set [1] (rat, in vivo, iv, 1.25 mg/kg) of 10820 ng·h/g. In the data set “in vivo” (male, SD), the Kp at 0.25 hr was determined as 29.2, the Kp at 1 hr was 27.9 and the Kp at 2 hr turned out to be 23. For the same compound, the Kp at 0.25 hr in the data set “in vivo” (male, SD, 113 IV 1.4 mg/kg, SD rats, 0.25 hr, mean) came out at 22.7. The partition ratio (Kp) at 1 hr in the data set “in vivo” (male, SD, 113 IV 1.4 mg/kg, SD rats, 1 hr, individual) is 21.7. For the same compound, the concentration ratio (Kp) at 2 hr in the data set “in vivo” (male, SD, 113 IV 1.4 mg/kg, SD rats, 2 hr, individual) worked out at 45.7. In the data set “in vivo” (setting [2]), this compound gave a concentration at 0.25 hr of 727 ng/g, a concentration at 1 hr of 902 ng/g, a concentration at 2 hr of 998 ng/g and a concentration at 6 hr of 526 ng/g. In the data set “in vivo” (setting [2]), this compound had a concentration at 10 hr of 288 ng/g and a concentration at 24 hr of 66.9 ng/g. The same compound showed a concentration at 2 hr in the data set “in vivo” (male, SD, plasma concentration of Endothal) of 30.4 ng/mL. Besides, in “in vivo”, the “AUC(0-last) in liver” value stood at 8086 ng·h/g and the “AUC(0-∞) in liver” value came to 8678 ng·h/g.
